# Several values for one entry are separate records, joined by “and”; a condition that tells them apart may be missing. Identical values can stand only once.
# How the values were obtained:
# [1] = tested on: healing MCL; test: Local neuropeptide delivery to normally innervated healing MCL: mechanical testing, histomorphology; format: in vivo, rat; details: for histomorphology (H&E) of healing MCL: Example 7, two weeks of healing; for failure force / ultimate stress: Example 7: normally innervated rats, bilateral MCL rupture, mini-osmotic pump (SP 75, CGRP 10, NPY 65, VIP 100 pg/100 μl)
# Experimental: Animal Model and Surgery: Forty female Wistar rats (200-250 g) were divided into five groups.
# All rats underwent bilateral MCL rupture. Neuropeptides were then delivered ruptured MCLs unilaterally. Neuropeptide infused mini-osmotic pumps (Alzet Corp.) were implanted subcutaneously into the back of each rat. A small catheter running from the pump was run to an intramuscular space above the MCL and was secured.
# Mechanical Testing: Mechanical testing was performed as described in Chapter 2. Briefly, animal hind limbs from all groups (n=5 for all groups) were disarticulated at the hip joint and stored at −80° C. until testing. On the day of testing, MCLs including intact femoral and tibial bone sections were excised for ex vivo testing. Ligament thickness and width was measured optically, and MCL area was estimated with elliptical geometry. For strain measurements, optical markers were placed onto the ligament tissue near the insertion sites. A small preload of 0.1N was applied to the ligaments in order to obtain a uniform starting point. The ligaments were then preconditioned to 1% strain for 10 cycles. After preconditioning, ligaments were pulled to failure at a rate of 10% per second.
# Tissue displacement was obtained using video dimensional analysis using equations (1) and (2) supra. The mechanical properties that were examined in this study were maximum force, ultimate stress, strain at failure, elastic modulus, and area. Statistical analysis was performed using paired ttests to compare each treated MCL to its contralateral control (alpha=0.05).
# Ligaments were immediately fixed in formalin fixative for three days at room temperature. Specimens were embedded in paraffin, sectioned (6 μm), mounted on slides, and stained with hematoxylin and eosin (H&E).
# [2] = tested on: bovine articular chondrocytes; test: Bovine chondrocytes proliferation assay (CellTiter 96 AQueous One); format: cell-based; details: CGRP 100 pg/ml, NPY 50 ng/ml, SP 500 pg/ml, VIP 1 ng/ml
# Experimental: (§1) Cartilage chunks were then digested at 37° C. in DMEM containing 0.05% hyaluronidase for 30 minutes, followed by 0.05% collagenase digestion overnight. The digests were filtered through 40-micron nylon mesh and centrifuged at 600×g for 20 minutes. The cell pellets were then resuspended in DMEM and counted using a hemacytometer.
# (§2) Cells were plated at 1×10^5 cells/well in 12-well plates (n=9) for proteoglycan assays and at 2×10^4 cells/well in 96-well plates (n=16) for proliferation assays. The culture volumes were 1 ml/well in 12-well plates and 100 μl/well in 96-well plates.
# (§3) The plates were incubated at 37° C. in a humidified CO2 incubator for 3 days to allow the cells to recover from the harvesting procedure.
# (§4) On Day 3 of treatment, 20 μl of CellTiter 96® AQueous One Solution Cell Proliferation Assay (Promega Corporation, Madison, Wis.) was added to each well of the 96-well cultures for 60 minutes, and cells in the 12-well plates were digested with 0.125 units of papain/well overnight. After the 60-minute incubation, the absorbance of the color generated by the cells in the 96-well plates was measured at wavelength 490 nm.
# [3] = tested on: bovine articular chondrocytes; test: Bovine chondrocytes glycosaminoglycan assay (DMMB); format: cell-based; details: Day 3 of treatment, individual wells
# Experimental: as §1, §2, §3, §4
# Following papain digestion of the cultures in 12-well plates, the amount of glycosaminoglycan (representative of proteoglycans) in each well was measured using the dimethylmethylene blue (DMMB) dye-binding assay. The results were statistically analyzed and plotted.
# [4] = tested on: Bovine nucleus pulposus cells; test: Bovine nucleus pulposus (intervertebral disc) cell proliferation; format: cell-based; details: day 1, day 2, day 3
# Experimental: Bovine calf spines and femoral condyles were obtained from a slaughterhouse and freshly transported to the laboratory. Nucleus pulposus tissue was carefully dissected, avoiding annular and endplate cartilage tissues, from each disc. Articular cartilage from femoral condyles was dissected in the same manner. […] Cells were harvested by overnight digestion with hyaluronidase and collagenase, followed by filtration. Cells were plated at a density of 1×10^5 cells/ml and incubated at 37° C. in 5% CO2 and 95% air in the presence of each neuropeptide or media only (control). At various time points in growth, cells were collected for proliferation and glycosaminoglycan (GAG) production assays. Varying concentrations of NPs were examined.
# Well established colorimetric and luminescent assays (CellTiter 96® AQueous Non-radioactive Cell Proliferation and CellTiter-Glo® Luminescent Cell Viability Assays, Promega, Madison, Wis.) were used to quantify the effect of each NP on cell proliferation. In addition, corresponding cell cultures during growth were digested with papain to release glycosaminoglycans (GAGs). Dimethyl methylene blue (DMMB) colorimetric assays were used to quantify the amount of GAGs in each culture.
# Multiple samples for test and control groups were performed simultaneously. Statistical analyses using one way analysis of variance (ANOVA) with large degrees of freedom (n=12 for GAG assays; n=24 for proliferation assays) were performed to establish the significance of differences between test groups and control groups for each day of growth in culture.
# The effect of neuropeptides on intervertebral disc cell proliferation was examined in order to elucidate further the pathophysiology of degenerative disc disease. Bovine nucleus pulposus cells were incubated with the same neuropeptides.
Substance,histomorphology (H&E) of healing MCL [1],"healed MCL strength relative to intact MCL strength ([1]; Example 7: SP, two weeks of healing) [%]",failure force ([1]; two weeks of healing),ultimate stress ([1]; two weeks of healing) [MPa],proliferation of articular chondrocytes compared to controls (in words) [2],Glycosaminoglycan Assay ([3]; SP 500 pg/ml),"disc cell proliferation compared to controls ([4]; CGRP 10 ng/ml, NPY (mcg/ml, SP 5 mcg/ml))",Glycosaminoglycan Assay ([3]; VIP 1 ng/ml),disc cell viability ([4]; VIP 100 ng/ml)
Substance P [SP],greatly improved tissue alignment,60,no change,13.4±8.9,stimulate proliferation,8.6 μg/dish and 9.1 μg/dish and 8.373 μg/dish and 7.011 μg/dish and 6.556 μg/dish and 7.192 μg/dish and 7.238 μg/dish and 7.283 μg/dish and 8.01 μg/dish,stimulate disc cell proliferation,–,–
vasoactive intestinal peptide [VIP],greatly improved tissue alignment,–,10.2±3.0 N,5.1±1.6,stimulate proliferation,–,–,7.419 μg/dish and 5.966 μg/dish and 6.874 μg/dish and 6.42 μg/dish and 6.965 μg/dish and 3.785 μg/dish and 6.147 μg/dish and 6.511 μg/dish and 8.328 μg/dish,negative influence
